Measurements from patent US4891450A, “Process for intermediates for insecticidal compounds” (Imperial Chemical Industries PLC, priority 1987, dated 1990).

What was measured:
Type in all cases: in vivo
[1] = tested on: Tetranychus urticae (spider mites - adult); assay: Contact test, mortality of Tetranychus urticae adults on French bean leaf (TUa); conditions: 72 h, 3 days, read-out: grading of mortality, TuA
Method: (§1) The activity of the Product was determined using a variety of insect pests The Product was used in the form of liquid preparations containing from 100 to 500 parts per million (ppm) by weight of the Product. The preparations were made by dissolving the Product in acetone and diluting the solutions with water containing 0.1% by weight of a wetting agent sold under the trade name "SYNPERONIC" NX until the liquid preparations contained the required concentration of the Product "SYNPERONIC" is a Registered Trade Mark.
(§2) The test procedure adopted with regard to each pest was basically the same and comprised supporting a number of the pests on a medium which was usually a host plant or a foodstuff on which the pests feed, and treating either or both the pests and the medium with the preparations. The mortality of the pests was then assessed at periods usually varying from one to seven days after the treatment.
(§3) The results of the tests are given in Table III for each of the Products, at the rate in parts per million given in the second column as a grading of mortality designated as A, B or C wherein A indicates 80-100% mortality or knockdown, B indicates 50-79% mortality knockdown or knockdown and C indicates less than 50% mortality or knockdown.
(§4) In Table III the pest organism used is designated by a letter code and the pests species, the support medium or food, and the type and duration of test is given in Table II.

[2] = tested on: Tetranychus urticae (spider mites - ova); assay: Contact test, mortality of Tetranychus urticae ova on French bean leaf (TUe); conditions: 144 h, 6 days, read-out: grading of mortality, TuE
Method: as §1, §2, §3, §4

Myzus persicae (aphids) = assay: Contact test, mortality of Myzus persicae on Chinese Cabbage leaf (MP); conditions: 72 h, 3 days, read-out: grading of mortality, MP
Method: as §1, §2, §3, §4

[3] = tested on: Nilaparvata lugens (brown plant hopper - nymphs); assay: Contact test, mortality of Nilaparvata lugens nymphs on Rice plant (NL); conditions: 72 h, 3 days, read-out: grading of mortality, NL
Method: as §1, §2, §3, §4

[4] = tested on: Musca domestica (houseflies - adults); assay: Contact test, mortality of Musca domestica adults (MD); conditions: 24 h, 1 day, read-out: grading of mortality, MD
Method: as §1, §2, §3, §4

[5] = tested on: Blattela germanica (cockroach nymphs); assay: Residual test, mortality of Blattela germanica nymphs (BG); conditions: 3 days
Method: as §1, §2, §3, §4

[6] = tested on: Heliothis virescens (tobacco budworm - larvae); assay: whole plant or invertebrate; conditions: in Gossypium hirsutum, 72 h, read-out: grading of mortality, HV
Method: as §1, §2, §3, §4
(tobacco budworm - larvae)

[7] = tested on: Spodoptera exigua (lesser army worm - larvae); assay: Residual test, mortality of Spodoptera exigua larvae on Cotton leaf (SP); conditions: 72 h, 3 days, read-out: grading of mortality, SP
Method: as §1, §2, §3, §4
(lesser army worm - larvae)

[8] = tested on: Diabrotica balteata (rootworm larvae); assay: Residual test, mortality of Diabrotica balteata larvae, Filter paper/maize seed (DB); conditions: 72 h, 3 days, read-out: grading of mortality, DB
Method: as §1, §2, §3, §4

Structure (SMILES) | mortality at 500 ppm [1] [%] | mortality at 500 ppm [2] [%] | mortality at 500 ppm (Myzus persicae (aphids)) [%] | mortality at 500 ppm [3] [%] | mortality at 500 ppm [4] [%] | grading of mortality, BG ([5]; 500 ppm) | mortality at 500 ppm [6] [%] | mortality at 500 ppm [7] [%] | mortality at 500 ppm [8] [%] | mortality at 250 ppm ([1]; 250 ppm) [%] | mortality at 250 ppm (Myzus persicae (aphids); 250 ppm) [%] | mortality at 250 ppm ([3]; 250 ppm) [%] | mortality at 250 ppm ([4]; 250 ppm) [%] | grading of mortality, BG ([5]; 250 ppm) | mortality at 250 ppm [6] [%] | mortality at 250 ppm ([8]; 250 ppm) [%]
FC(F)(F)c1ccc(C(COCc2cccc(Oc3ccccc3)c2)C(F)(F)F)cc1 (racemic) [Compound 39, (RS)-1,1,1-Trifluoro-2-(4-trifluoromethylphenyl)-3-(3-phenoxybenzyloxy)propane] | < 50 | 80 to 100 | 80 to 100 | 80 to 100 | 80 to 100 | A (80-100% mortality or knockdown) | 80 to 100 | 80 to 100 | 80 to 100 |  |  |  |  |  |  | 
Fc1ccc(COCC(c2ccc(C(F)(F)F)cc2)C(F)(F)F)cc1Oc1ccccc1 (racemic) [Compound 38, (RS)-1,1,1-Trifluoro-2-(4-trifluoromethylphenyl)-3-(3-phenoxy-4-fluorobenzyloxy) propane] | 80 to 100 | 80 to 100 | 80 to 100 | 80 to 100 | 80 to 100 | A (80-100% mortality or knockdown) | 80 to 100 | 80 to 100 | 80 to 100 |  |  |  |  |  |  | 
CCOc1ccc(C(COCc2ccc(F)c(Oc3ccc(Cl)cc3)c2)C(F)(F)F)cc1 (racemic) [Compound 5, (RS)-1,1,1-trifluoro-2-(4-ethoxyphenyl)-3-[3-(4-chlorophenoxy)-4-fluorobenzyloxy]propane] | 50 to 79 |  | 80 to 100 | 80 to 100 | 80 to 100 | A (80-100% mortality or knockdown) | 80 to 100 |  | 80 to 100 |  |  |  |  |  |  | 
CCOc1ccc(C(COCc2cccc(Oc3ccc(Cl)cc3)c2)C(F)(F)F)cc1 (racemic) [Compound 3, (RS)-1,1,1-trifluoro-2-(4-ethoxyphenyl)-3-[3-(4-chlorophenoxy)benzyloxy]propane] |  |  |  |  |  |  |  |  |  | < 50 | 80 to 100 | 80 to 100 | 80 to 100 | A (80-100% mortality or knockdown) | < 50 | 80 to 100
Fc1ccc(COCC(c2ccc(OC(F)(F)F)cc2)C(F)(F)F)cc1Oc1ccc(Cl)cc1 (racemic) [Compound 29, (RS)-1,1,1-Trifluoro-2-(4-trifluoromethoxyphenyl)-3-[3-(4-chlorophenoxy)-4-fluorobenzyloxy]propane] | 80 to 100 | 80 to 100 | 80 to 100 | 80 to 100 | 80 to 100 | A (80-100% mortality or knockdown) | 80 to 100 | 80 to 100 | 80 to 100 |  |  |  |  |  |  | 
